Measured values as given in US6420367B1, “Pyrimidine derivatives exhibiting antitumor activity” (Shionogo & Co., Ltd., priority 1998, dated 2002).
Values after ≈ are worked out from the molar mass of the structure shown.

How the values were obtained:
[1] = test system: DT-R cells (pRRE3-luc-transfected v-ki-ras-transformed NIH3T3 cells); signal derived from Ras oncogene products; test: Inhibitory effect against cellular signaling derived from Ras oncogene products: luciferase reporter, dissociation of DT-R from DT-C activity (MAC); format: cell-based, mouse; conditions: minimal tested concentration at which luciferase activities of DT-C cells and DT-R cells dissociated
Text: Test Example 1 Inhibitory Effect Against Cellular Signaling Derived From Ras Oncogene Products
1) Establishment of Cell Lines Used in Assay
Based on the reporter plasmid (pGV-P (Toyo Ink, Japan)), in which luciferase gene was ligated to SV40-derived minimal promoter, we constructed a plasmid designated pRRE3-luc by inserting 3 copies of chemically synthesized oligonucleotides (Sequence: CAGGATATGACTCT, derived from mouse NVL-3 (M. A. Reddy et al.(1992)Mol. Endocrinol., 6, 1051)) into upstream of the promoter. v-ki-ras-transformed NIH3T3 cells (DT cells, provided by Dr. Makoto Noda (Kyoto Univ., School of medicine)) were transfected with this plasmid by liposome-mediated transfection and transfected cell lines stably incorporated and maintained each plasmid were obtained. We named pGV-P and pRRE3-transfected cell line as DT-C and DT-R, respectively and used in the assay described below.
2) Preparation of Samples
i) All the cell lines were cultured in Dulbecco's Modified Essential Medium (DMEM: 10% Fetal Calf Serum(FCS: Hyclone, USA)) including […] kanamycin (Meiji Seika, Japan) in humidified incubator under condition of 5% CO2 at 37° C.
ii) DT-C and DT-R cells were seeded at 2500 cells/well into flat-bottom 96 well multiplate (Sumitomo bakelite) and incubated for 24 hours.
iii) Test compounds were prepared as 1 mg/ml DMSO solution.
iv) The solution of test compounds were added to the culture. Tested compounds are used at the concentration from […] to 0.51 ng/ml with by 3-fold dilution.
v) After 24 hours, the culture supernatant was completely aspirated and […] of cell-lysing solution (PGC-50 (Toyo Ink, Japan)) was added before cells were dried up. In order to the cells were lysed completely, multiwell plates were left at room temperature for 10 to 30 min. The plates were wrapped up and stored at −20° C. till the day of measurement.
3) Measurement of Samples
i) Melt the samples by putting 96 well multiplate at 37° C. and add 90 μl/well 25 mM Tris (pH 7.5).
ii) Transfer 50 μl of the sample (110 μl) to the 96 well microplate for measurement (Microlite 1 (Dynatech)).
iii) Measure the samples by the luminometer, LUMINOUS CT9000D (Dia-Yatron, Japan). We used Pickagene luminescence kit PGL2000 or LT2.0 (Toyo Ink, Japan) as substrates for luminescence measurement (50 μl/well).
4) Judgment of the Results
i) The luciferase activity of DT-C cells and DT-R cells were plotted in the graph where the relative activity and the compound concentration were expressed as Y-axis and X-axis, respectively. We judged by the degree of dissociation between the activities of DT-C cells and DT-R cells as an index.
ii) Concretely, efficacy of the compound was expressed by two values described below.
a) Among the points of concentration tested, the minimal concentration (Minimal Active Concentration: MAC), at which the activities of DT-C cells and DT-R cells dissociated, was shown as an index of efficacy of the compound.

[2] = test system: human squamous lung cancer RERF-RC-AI; test: In vitro cell growth inhibition test, MTT assay; format: cell-based; conditions: MTT assay 4 days after compound addition
Text: (§1) Test Example 2 In Vitro Cell Growth Inhibition Test Cells and MTT Assay
(§2) Human squamous lung cancer […], human squamous lung cancer Ma44, human lung adenocarcinoma A549, human colon cancer HT29 and human pancreas cancer PANC-1 were used.

[3] = test system: human squamous lung cancer Ma44; test: In vitro cell growth inhibition test, MTT assay; format: cell-based; conditions: MTT assay 4 days after compound addition
Text: as §1, §2

[4] = test system: human lung adenocarcinoma A549; test: In vitro cell growth inhibition test, MTT assay; format: cell-based; conditions: MTT assay 4 days after compound addition
Text: as §1, §2

[5] = test system: human colon cancer HT29; test: In vitro cell growth inhibition test, MTT assay; format: cell-based; conditions: MTT assay 4 days after compound addition
Text: as §1, §2

[6] = test system: human pancreas cancer PANC-1; test: In vitro cell growth inhibition test, MTT assay; format: cell-based; conditions: MTT assay 4 days after compound addition
Text: as §1, §2

Compound | IC50, RERF-LC-AI [2] [µg/mL] | IC50, Ma44 [3] [µg/mL] | IC50, A549 [4] [µg/mL] | IC50, HT29 [5] [µg/mL] | IC50, PANC-1 [6] [µg/mL] | MAC (Minimal Active Concentration) [1] [µg/mL]
CCCNC(=Nc1nc(C)ncc1CSc1nnc(-c2ccc([N+](=O)[O-])cc2)o1)NCC [Compound A-135] | 0.012 (≈ 0.0263 µM) | 0.016 (≈ 0.035 µM) | 0.052 (≈ 0.114 µM) | 0.01 (≈ 0.0219 µM) | 0.017 (≈ 0.0372 µM) | 0.0137
CCCNC(=Nc1nc(CC)ncc1CSc1nnc(-c2ccc(N)cc2)o1)NCCC [Compound A-139] | 0.013 (≈ 0.0286 µM) | 0.014 (≈ 0.0308 µM) | 0.013 (≈ 0.0286 µM) | 0.008 (≈ 0.0176 µM) | 0.007 (≈ 0.0154 µM) | <0.000508
CCNC(=Nc1nc(C)ncc1CSc1nnc(-c2ccc(N)cc2OC)o1)NCC [Compound A-141] | 0.016 (≈ 0.0362 µM) | 0.085 (≈ 0.192 µM) | 0.051 (≈ 0.115 µM) | 0.032 (≈ 0.0723 µM) | 0.021 (≈ 0.0475 µM) | 0.0412
CCCNC(=Nc1nc(C)ncc1CSc1nnc(-c2ccc(N)cc2)o1)NC [Compound A-148] | 0.011 (≈ 0.0267 µM) | 0.086 (≈ 0.208 µM) | 0.49 (≈ 1.19 µM) | 0.016 (≈ 0.0388 µM) | 0.015 (≈ 0.0364 µM) | 0.123
CCCNC(=Nc1nc(CC)ncc1CSc1nnc(-c2ccc([N+](=O)[O-])cc2)o1)NC [Compound A-150] | 0.016 (≈ 0.035 µM) | 0.14 (≈ 0.307 µM) | 0.005 (≈ 0.011 µM) | 0.031 (≈ 0.0679 µM) | 0.037 (≈ 0.081 µM) | 0.123

Further lines, with some results ahead:

IC50, RERF-LC-AI [2] [µg/mL] | IC50, Ma44 [3] [µg/mL] | IC50, A549 [4] [µg/mL] | IC50, HT29 [5] [µg/mL] | IC50, PANC-1 [6] [µg/mL] | Compound | MAC (Minimal Active Concentration) [1] [µg/mL]
0.013 (≈ 0.0305 µM) | 0.16 (≈ 0.375 µM) | 0.07 (≈ 0.164 µM) | 0.02 (≈ 0.0469 µM) | 0.024 (≈ 0.0563 µM) | CCCNC(=Nc1nc(CC)ncc1CSc1nnc(-c2ccc(N)cc2)o1)NC [Compound A-151] | 0.37
0.025 (≈ 0.0531 µM) | 0.055 (≈ 0.117 µM) | 0.095 (≈ 0.202 µM) | 0.052 (≈ 0.111 µM) | 0.05 (≈ 0.106 µM) | Cc1ncc(CSc2nnc(-c3ccc([N+](=O)[O-])cc3)o2)c(N=C(NC(C)C)NC(C)C)n1 [Compound A-165] | 0.123
0.016 (≈ 0.0363 µM) | 0.049 (≈ 0.111 µM) | 0.056 (≈ 0.127 µM) | 0.033 (≈ 0.0749 µM) | 0.028 (≈ 0.0636 µM) | Cc1ncc(CSc2nnc(-c3ccc(N)cc3)o2)c(N=C(NC(C)C)NC(C)C)n1 [Compound A-166] | 0.123
0.0032 (≈ 0.0075 µM) | 0.025 (≈ 0.0586 µM) | 0.012 (≈ 0.0281 µM) | 0.0061 (≈ 0.0143 µM) | 0.006 (≈ 0.0141 µM) | CCCNC(=Nc1nc(C)ncc1CSc1nnc(-c2ccc(N)cc2)o1)NCC [Compound A-167] | 0.0137
0.021 (≈ 0.0448 µM) | 0.05 (≈ 0.107 µM) | 0.041 (≈ 0.0875 µM) | 0.027 (≈ 0.0576 µM) | 0.025 (≈ 0.0533 µM) | CCCCNC(=Nc1nc(C)ncc1CSc1nnc(-c2ccc(N)cc2)o1)NCCCC [Compound A-169] | 0.0412
0.004 (≈ 0.0097 µM) | 0.013 (≈ 0.0315 µM) | 0.012 (≈ 0.0291 µM) | 0.0064 (≈ 0.0155 µM) | 0.006 (≈ 0.0145 µM) | CNC(=Nc1nc(C)ncc1CSc1nnc(-c2ccc(N)cc2)o1)NC(C)C [Compound A-171] | 0.0137
